For 13 compounds, TGI and GI50 results are on record in PubChem BioAssay (NCI).

Where “and” joins values, the source holds several entries; their conditions need not be identical. Equal entries are not always repeated.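 Cells were grown in 96-well plates and exposed to each compound for 48 hours at five concentrations; endpoints were interpolated linearly between bracketing concentrations, or set to the highest concentration if not reached. GI50 is the concentration that inhibits growth by half. TGI denotes the concentration required for complete inhibition of growth.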 Bounds are passed on as bounds.

Some test systems named below: DMS 114 small cell lung; SK-OV-3 ovarian; LOX IMVI melanoma; HCT-116 colon; KM12 colon; LXFL 529 NSCLC; HOP-18 NSCLC; SNB-78 CNS; TK-10 renal; HOP-62 NSCLC; PC-3 prostate.
Holding throughout (assay): growth of human tumour cells (NCI), 48 h

As for `COc1cc(OC)c(OC)cc1/C=N/NC(=O)N/N=C/c1cc(OC)c(OC)cc1OC`, the TGI in the assay on DMS 114 small cell lung, in the assay on SK-OV-3 ovarian, in the assay on LOX IMVI melanoma, in the assay on HCT-116 colon, with KM12 colon and with LXFL 529 NSCLC was greater than 100 µM throughout. Also, the TGI in the assay on HOP-18 NSCLC, in the assay with SNB-78 CNS and in the assay on TK-10 renal was greater than 100 µM each time.
For `O=C1C/C(Br)=C\c2ccccc2-c2ccccc21`, the TGI in the assay on DMS 114 small cell lung worked out at 6.58 µM; in the assay on SK-OV-3 ovarian, 10.1 µM; in the assay with LOX IMVI melanoma, 2.43 µM; in the assay on HCT-116 colon, 3.71 µM; in the assay on KM12 colon, 11.5 µM; with LXFL 529 NSCLC it was 3.5 µM. Also, the TGI in the assay with HOP-18 NSCLC was 16.8 µM; with SNB-78 CNS it was 16.9 µM; in the assay with TK-10 renal it was 14.5 µM; in the assay on HOP-62 NSCLC, 9.67 µM.
As for `O/N=C1\CCCCC1C(NO)c1ccccc1` (stereo not drawn), the TGI in the assay with DMS 114 small cell lung, with SK-OV-3 ovarian, in the assay on LOX IMVI melanoma, with HCT-116 colon, in the assay with KM12 colon and with LXFL 529 NSCLC was greater than 100 µM each time. The TGI in the assay on HOP-18 NSCLC, with SNB-78 CNS, in the assay with TK-10 renal and with HOP-62 NSCLC was greater than 100 µM in each case.
As for `CCOc1ccc(OCC(=O)O)c2c1CCCC2=O`, the TGI in the assay with DMS 114 small cell lung, with SK-OV-3 ovarian, in the assay on LOX IMVI melanoma, with KM12 colon, in the assay on LXFL 529 NSCLC and in the assay on SNB-78 CNS was greater than 100 µM throughout. For the same compound, the TGI in the assay on TK-10 renal and in the assay with HOP-62 NSCLC was greater than 100 µM in each case.
In the case of `COc1ccc(NC(=O)CSc2nnc(-c3ccc(NC(C)=O)cc3)o2)cc1`, the TGI in the assay on DMS 114 small cell lung was 19.3 µM; in the assay on SK-OV-3 ovarian it was greater than 100 µM; in the assay with LOX IMVI melanoma, 29.5 µM; in the assay on HCT-116 colon, 29.4 µM; with KM12 colon, 30 µM; in the assay on LXFL 529 NSCLC it was 26.7 µM. The TGI with HOP-18 NSCLC was 34.9 µM; with SNB-78 CNS it was 44 µM; with TK-10 renal, 41.2 µM; with HOP-62 NSCLC, 68.6 µM.
With `O=Cc1cc2c(cc1-c1cc3c(cc1C=O)OCO3)OCO2`, the TGI in the assay on DMS 114 small cell lung is greater than 100 µM; in the assay on SK-OV-3 ovarian, greater than 100 µM; in the assay on LOX IMVI melanoma, 56.3 µM; in the assay on HCT-116 colon, greater than 100 µM; in the assay with KM12 colon, greater than 100 µM; with LXFL 529 NSCLC it was greater than 100 µM. The TGI in the assay on HOP-18 NSCLC, in the assay with SNB-78 CNS, with TK-10 renal and in the assay on HOP-62 NSCLC was greater than 100 µM in each case.
Consider `CC(=O)N/C(=C\c1ccccc1/C=C(\NC(C)=O)c1nc2cc(C)c(C)cc2[nH]1)c1nc2cc(C)c(C)cc2[nH]1`, for which the TGI was 11.2 µM with DMS 114 small cell lung; 69.1 µM in the assay on SK-OV-3 ovarian; 88.2 µM in the assay on HCT-116 colon; greater than 100 µM in the assay with KM12 colon; 30.8 µM in the assay on LXFL 529 NSCLC; greater than 100 µM with SNB-78 CNS. Besides, the TGI is greater than 100 µM in the assay with TK-10 renal and 68.6 µM with HOP-62 NSCLC.
Consider `O=C1C=C(c2c(O)ccc3ccccc23)c2cc(O)ccc2C1=O`, for which the TGI in the assay on DMS 114 small cell lung came to 19.6 µM; in the assay on SK-OV-3 ovarian it was 38.5 µM; in the assay on LOX IMVI melanoma, 25.3 µM; in the assay with HCT-116 colon, 30.1 µM; in the assay with KM12 colon, 31.5 µM; in the assay with LXFL 529 NSCLC it was 19.5 µM. In addition, the TGI in the assay on HOP-18 NSCLC was determined as 43.8 µM; with SNB-78 CNS, 42.5 µM; with TK-10 renal, 35.4 µM; with HOP-62 NSCLC it was 35.4 µM.
`C/C(=N\NC(N)=O)c1sc(-c2nc(C)c(/C(C)=N/NC(N)=O)s2)nc1C`: the TGI in the assay on SK-OV-3 ovarian, in the assay with LOX IMVI melanoma, with KM12 colon, in the assay on LXFL 529 NSCLC, in the assay with HOP-18 NSCLC and in the assay with SNB-78 CNS was greater than 100 µM each time. Moreover, the TGI in the assay on TK-10 renal and with HOP-62 NSCLC was greater than 100 µM each time.
For `Cc1nc2c(N)ncnc2o1`, the TGI with DMS 114 small cell lung, in the assay on SK-OV-3 ovarian, in the assay on LOX IMVI melanoma, in the assay with HCT-116 colon, in the assay on KM12 colon and in the assay with LXFL 529 NSCLC was greater than 100 µM each time. Besides, the TGI in the assay on HOP-18 NSCLC, in the assay on SNB-78 CNS, with TK-10 renal and with HOP-62 NSCLC was greater than 100 µM in each case.
With `NC(=S)N/N=C/c1ncccc1O`, the GI50 in the assay with SK-OV-3 ovarian is 4.76 µM; in the assay on LOX IMVI melanoma, 5.29 µM; in the assay on HCT-116 colon, 2.86 µM; in the assay on KM12 colon, 4.67 µM; with PC-3 prostate, 0.895 µM; in the assay on SNB-78 CNS, 64.7 µM. Besides, the GI50 with TK-10 renal was 11.2 µM; in the assay on HOP-62 NSCLC, 2.6 µM. Besides, the TGI with SK-OV-3 ovarian is 49.1 µM and 130 µM; with LOX IMVI melanoma, 98.7 µM and 54.6 µM; in the assay with HCT-116 colon, greater than 391 µM; in the assay with KM12 colon, greater than 1000 µM; in the assay on PC-3 prostate, greater than 1000 µM; in the assay on HOP-18 NSCLC it was 141 µM. The TGI in the assay with SNB-78 CNS was greater than 1000 µM; with TK-10 renal it was 292 µM; with HOP-62 NSCLC it was 11.1 µM and 16.7 µM.
Consider `CN(C)CCNC(=O)Cc1ccccc1Nc1c(Cl)cccc1Cl`, for which the TGI in the assay with DMS 114 small cell lung was 33.1 µM; in the assay with SK-OV-3 ovarian it was 33.4 µM; in the assay on LOX IMVI melanoma, 26.8 µM; with HCT-116 colon it was 31.2 µM; in the assay with KM12 colon, 35.7 µM; in the assay on LXFL 529 NSCLC, 32.5 µM. Moreover, the values for the TGI with SNB-78 CNS, with TK-10 renal and in the assay with HOP-62 NSCLC were 38.7 µM, 27.2 µM and 28.5 µM, respectively.
As to `c1ccc2c(c1)CCc1c(-c3ccncc3)n[nH]c1-2`, the TGI in the assay on DMS 114 small cell lung amounted to 51.7 µM; in the assay on SK-OV-3 ovarian, 93.6 µM; in the assay with LOX IMVI melanoma, 54.8 µM; in the assay on HCT-116 colon, 46.2 µM; in the assay with KM12 colon, 55.7 µM; in the assay on LXFL 529 NSCLC, 66.2 µM. Moreover, the TGI in the assay on SNB-78 CNS, in the assay on TK-10 renal and in the assay on HOP-62 NSCLC was greater than 100 µM in each case.
